Tested on: SARS2 replicon
Experiment: microbe, parasite or virus in culture
Assay type: cell-based, SARS-CoV-2
Details: Severe acute respiratory syndrome coronavirus 2, HEK-293T, 24 hr, read-out: inhibition of fLuc

CCC(CC)COC(=O)[C@H](C)N[P@](=O)(OC[C@H]1O[C@@](C#N)(c2ccc3c(N)ncnn23)[C@H](O)[C@@H]1O)Oc1ccccc1 [Remdesivir]
inhibition at 10 µM: 70%

Source: patent US20230304041A1, “DUAL PROMOTER-DRIVEN AND DUAL REPORTER-[…]-COV-2 REPLICONS AND METHODS OF USE” (Rosalind Franklin University of Medicine & Science, priority 2022, published 2023)
